Assay results as given in US8304382B2, “Anti-inflammatory and anti-allergic cyclic peptides” (Cristalia Productos Quimicos Farmaceuticos Ltda., priority 2006, dated 2012).
Bridge positions count the residues as written; N and C are the ends. Peptide text beside a SMILES is read from it.

Key:
trypsin = molecular target: T1, trypsin (Bos taurus, UniProt P00760); assay: Inhibition of trypsin, determination of inhibition constants (Ki); assay type: biochemical
T1 construct: gene PRSS1
T1 sequence (P00760 24-246): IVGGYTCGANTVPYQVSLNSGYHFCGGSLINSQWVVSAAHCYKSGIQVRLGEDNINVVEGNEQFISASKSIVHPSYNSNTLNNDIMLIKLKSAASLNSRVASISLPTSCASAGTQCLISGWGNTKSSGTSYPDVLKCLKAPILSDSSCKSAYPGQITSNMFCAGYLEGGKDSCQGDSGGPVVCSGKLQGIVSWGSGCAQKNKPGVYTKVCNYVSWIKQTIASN
Description: The substrate utilized was Abz-Phe-Arg-Ser-Ser-Arg-Gln-EDDnp (SEQ ID NO: 11), a fluorescent analog of bradykinin, purified by way of high pressure liquid chromatography, (HPLC) until purity greater than 95% (single peak) was achieved.
The hydrolysis reactions were conducted using a Hitachi. F-2000 spectrofluorometer, with the excitation and emission slits set at 10 and 20 nm, and the excitation and emission wavelengths at 320 and 420 nm, respectively. The temperature of the reaction cuvette was maintained at 37° C. in a thermostatically controlled compartment.
The enzymatic activity of trypsin (0.5-5 nM) was determined in 50 mM Tris-HCl buffer, pH 8.0, containing 20 mM NaCl at 37° C., with the addition of approximately 0.1-6.0 μM of the fluorescent substrates. The increase in fluorescence was monitored continually for 5 min in the spectrofluorometer. When necessary, the correction of the fluorescent reading was done using the empiric equation described by Araújo et. al., Biochemistry 25; 8519, 2000. Kinetic data were determined from the initial hydrolysis (consumption of substrate less than 10%) and calculations involving kinetic parameters (Km, Vmáx and kcat) were performed using the Michaelis-Menten equation furnished by the GRAFIT for Windows 3.0 program.
To determine the inhibition kinetics of trypsin with the peptides of the present invention, three substrate concentrations were used: a) corresponding to half of the value of Km (0.8 μM); b) corresponding to the whole value of Km (1.6 μM); c) corresponding to slightly more than double the value of Km (3.5 μM). […] Incubation carried out at 37° C. Tris-HCl buffer, pH 8.0, containing 20 mM NaCl at 37° C. For characterization of enzymatic inhibition, a Lineweaver-Burk plot was employed (1/V vs 1/S), and the value of Ki was determined from the relation between the apparent inhibition constant (Ki(app)) and the value of Km for the substrate: Ki(app)=[I]/[(v0/vi)−1] and Ki=Ki(app)/[(Km/[S])+1] where; [I]=inhibitor concentration; (v0/vi)=ratio of the hydrolysis velocities in the absence and presence of inhibitor, respectively. Km/[S]=ratio between Km of the substrate and substrate concentration.

[1] = test system: leukocytes and eosinophils recruited to the alveolar space; assay: Chronic asthma induced by ovalbumin, bronchoalveolar lavage cell count; assay type: in vivo, BALB/c mice
Description: (§1) After the 14th day, the animals were submitted to 3 challenges per week with a 1% OVA aerosol, Immunized animals and challenged only with PBS (phosphate buffered saline) were considered controls. To induce chronic asthma, the animals were challenged 3 times a week during 3 consecutive weeks.
(§2) For the aerosol challenge, the animals were placed in a closed plastic box adapted with an ultra-sonic nebulizer (US-800, ICEL) and exposed to inhalation of 2 mL of a 1% solution of ovalbumin (grade V, Sigma) in saline, over 20 minutes, 24 h after the last aerosol challenge, the animals were sacrificed with a high dose of chloral hydrate to obtain the peripheral blood, the Broncho-Alveolar Lavage (BAL) and the pulmonary tissue to count the total number of leukocytes and eosinophils.
(§3) Groups of animals were treated with 4 nmol or 40 nmol of the peptide identified by SEQ ID NO: 7 intranasally and intraperitoneally 30 minutes before each challenge, and orally 1 hour before each challenge. The group of animals with chronic asthma was treated only with 4 nmol or 40 nmol of the peptide identified by SEQ ID NO: 7_intraperitoneally 30 minutes before each challenge.
(§4) The aerial space was washed with three, 1 mL aliquots of HBSS (Hanks Balanced Salt Solution) EDTA (ethylenediaminetetraacetic acid). After collection, the BAL was immediately centrifuged at 800 rpm for 10 minutes, the supernatant discarded, and the cellular button was re-suspended in 1 mL of HBSS 0.1% BSA (bovine serum albumin) to count the cells. The total cells from the BAL were counted in a Neubauer chamber. Aliquots containing 5×10^5 cells were centrifuged on glass slides using a cytocentrifuge, for 5 minutes at 600 rpm. To determine the percentages of the different cellular populations, the slides were stained with Hema 3 and 300 cells were counted in randomly selected fields. The absolute number of each cellular population in the BAL was obtained by multiplication of the percentages by the total number of cells found in the sample volume.

[2] = test system: leukocytes and eosinophils recruited to the alveolar space; assay: Acute pulmonary asthma induced by ovalbumin, bronchoalveolar lavage cell count; assay type: in vivo, BALB/c mice
Description: as §1, §2, §3, §4

[3] = test system: recruitment of leukocytes in the peritoneal cavity; assay: Prevention of peritonitis induced by LPS; assay type: in vivo, mice; conditions: 24 h
Description: Mice were injected intraperitoneally with 4 nmol or 40 nmol of the peptide identified by SEQ ID NO: 7 dissolved in 500 μL of sterile saline solution, 30 minutes prior to administering intraperitoneal injection of LPS (O55:BR 20 μg/mL, Sigma) diluted in 500 μL of sterile saline solution. Animals injected only with sterile saline were considered controls, 24 h after injection of LPS, the animals were sacrificed with a high dose of chloral hydrate to obtain the washing of the peritoneal cavity to count the number of cells (A), neutrophils (B) and macrophages (C). The material removed from the peritoneum was centrifuged for 10 minutes at 1500 rpm and 4° C., the supernatant was separated and frozen at −20° C. for future analyses, while the remaining material containing the cells was re-suspended in PBS 0.1% BSA. The total count was performed in a Neubauer chamber, For the differential count, an aliquot of the cellular suspension was placed on slides and centrifuged (Citospin), stained with Hema 3 and examined under the optical microscope, counting a total of 300 cells. The absolute number of each cellular population was obtained by multiplication of the percentages by the total number of cells found in the sample volume.

[4] = 4 nmol or 40 nmol intraperitoneally, FIG. 6
[5] = 4 or 40 nmol i.p. 30 min before LPS, FIG. 4

CC[C@H](C)[C@H](N)C(=O)N1CCC[C@H]1C(=O)N[C@@H](CCCNC(=N)N)C(=O)N[C@H]1CSSC[C@@H](C(=O)O)NC(=O)[C@H](CCSC)NC(=O)[C@H](CCCCN)NC(=O)[C@H](C(C)C)NC(=O)CNC(=O)[C@@H]2CCCN2C(=O)[C@H](CCSC)NC(=O)[C@H](CCCCN)NC(=O)[C@H](CCCNC(=N)N)NC1=O [SEQ ID NO: 1, Ile1-Pro2-Arg3-Cys4-Arg5-Lys6-Met7-Pro8-Gly9-Val10-Lys11-Met12-Cys13] (H-IPRCRKMPGVKMC-OH; disulfide 4-13)
Ki (trypsin): 22.5 nM
type of inhibition of trypsin (trypsin; FIG. 1): simple, competitive inhibition

CC[C@H](C)[C@@H]1NC(=O)[C@H]([C@@H](C)O)NC(=O)[C@@H](NC(=O)[C@H](CCC(N)=O)NC(=O)[C@H](CCC(=O)O)NC(=O)[C@@H](N)C(C)C)CSSC[C@@H](C(=O)O)NC(=O)[C@H](CC(=O)O)NC(=O)[C@H](CCCCN)NC(=O)[C@H](CCC(=O)O)NC(=O)[C@H](CC(=O)O)NC(=O)CNC(=O)[C@H]([C@@H](C)CC)NC1=O [SEQ ID NO: 2, Val1-Glu2-Gln3-Cys4-Thr5-Ile6-Ile7-Gly8-Asp9-Glu10-Lys11-Asp12-Cys13] (H-VEQCTIIGDEKDC-OH; disulfide 4-13)
Ki (trypsin): 24 nM

CC[C@H](C)[C@@H]1NC(=O)[C@H]([C@@H](C)O)NC(=O)[C@@H](NC(=O)[C@H](CCC(N)=O)NC(=O)[C@H](CCC(=O)O)NC(=O)[C@@H](N)C(C)C)CSSC[C@@H](C(=O)O)NC(=O)[C@H](CC(=O)O)NC(=O)[C@H](CCCCN)NC(=O)[C@H](C)NC(=O)[C@H](CC(=O)O)NC(=O)CNC(=O)[C@H]([C@@H](C)CC)NC1=O [SEQ ID NO: 3, Val1-Glu2-Gln3-Cys4-Thr5-Ile6-Ile7-Gly8-Asp9-Ala10-Lys11-Asp12-Cys13] (H-VEQCTIIGDAKDC-OH; disulfide 4-13)
Ki (trypsin): 63.6 nM

CC[C@H](C)[C@@H]1NC(=O)[C@H](CCC(=O)O)NC(=O)[C@H](CO)NC(=O)[C@@H](NC(=O)[C@H](CCC(N)=O)NC(=O)[C@H](CCC(N)=O)NC(=O)[C@@H](N)C(C)C)CSSC[C@@H](C(=O)O)NC(=O)[C@@H]2CCCN2C(=O)[C@H](CCCCN)NC(=O)[C@H](C)NC(=O)CNC(=O)[C@H](C)NC1=O [SEQ ID NO: 4, Val1-Gln2-Gln3-Cys4-Ser5-Glu6-Ile7-Ala8-Gly9-Ala10-Lys11-Pro12-Cys13] (H-VQQCSEIAGAKPC-OH; disulfide 4-13)
Ki (trypsin): 42 nM

CC[C@H](C)[C@@H]1NC(=O)[C@H](CCCCN)NC(=O)[C@H](CC(=O)O)NC(=O)[C@@H](NC(=O)[C@H](CCCNC(=N)N)NC(=O)[C@H](Cc2c[nH]cn2)NC(=O)[C@@H](N)CC(C)C)CSSC[C@@H](C(=O)O)NC(=O)[C@@H]2CCCN2C(=O)[C@H](CCCCN)NC(=O)[C@H](C)NC(=O)[C@H](CC(=O)O)NC(=O)[C@H](C)NC1=O [SEQ ID NO: 5, Leu1-His2-Arg3-Cys4-Asp5-Lys6-Ile7-Ala8-Asp9-Ala10-Lys11-Pro12-Cys13] (H-LHRCDKIADAKPC-OH; disulfide 4-13)
Ki (trypsin): 44 nM

CC[C@H](C)[C@H](N)C(=O)N1CCC[C@H]1C(=O)N[C@@H](CCCNC(=N)N)C(=O)N[C@H]1CSSC[C@@H](C(=O)O)NC(=O)[C@H](CCSC)NC(=O)[C@H](CCCCN)NC(=O)[C@H](C(C)C)NC(=O)CNC(=O)[C@@H]2CCCN2C(=O)[C@H](CCSC)NC(=O)[C@H](C)NC(=O)[C@H](CCCNC(=N)N)NC1=O [SEQ ID NO: 6, Ile1-Pro2-Arg3-Cys4-Arg5-Ala6-Met7-Pro8-Gly9-Val10-Lys11-Met12-Cys13] (H-IPRCRAMPGVKMC-OH; disulfide 4-13)
Ki (trypsin): 24.2 nM

CC[C@H](C)[C@H](N)C(=O)N1CCC[C@H]1C(=O)N[C@@H](CCCNC(=N)N)C(=O)N[C@H]1CSSC[C@@H](C(N)=O)NC(=O)[C@H](CCSC)NC(=O)[C@H](CCCCN)NC(=O)[C@H](C(C)C)NC(=O)CNC(=O)[C@@H]2CCCN2C(=O)[C@H](CCSC)NC(=O)[C@H](CCCCN)NC(=O)[C@H](CCCNC(=N)N)NC1=O [SEQ ID NO: 7, Ile1-Pro2-Arg3-Cys4-Arg5-Lys6-Met7-Pro8-Gly9-Val10-Lys11-Met12-Cys13-NH2] (H-IPRCRKMPGVKMC-NH2; disulfide 4-13)
effect on recruitment of cells to the lung compared with oral dexamethasone 0.3 mg/Kg [1]: similar
eosinophils in the bronchoalveolar lavage [1, 4]: decrease in eosinophils
total number of leukocytes recruited to the alveolar space [1, 4]: provoked a decrease
effect on recruitment of cells to the lung compared with oral dexamethasone 0.3 mg/Kg [2]: similar
total number of leukocytes recruited to the alveolar space ([2]; 4 nmol or 40 nmol, all routes (intranasal, intraperitoneal, oral), FIG. 5): provoked a decrease
eosinophils in the bronchoalveolar lavage ([2]; 4 nmol or 40 nmol, all routes, FIG. 5): absence of eosinophils
Ki (trypsin): 20 nM
prevention of the recruitment of leukocytes in the peritoneal cavity ([3]; 4 nmol and 40 nmol i.p. 30 min before LPS, compared to the control): ~50%
recruitment of macrophages in the peritoneal cavity [3, 5]: prevented the recruitment
recruitment of neutrophils in the peritoneal cavity [3, 5]: prevented the recruitment

CC[C@H](C)[C@H](NC(C)=O)C(=O)N1CCC[C@H]1C(=O)N[C@@H](CCCNC(=N)N)C(=O)N[C@H]1CSSC[C@@H](C(=O)O)NC(=O)[C@H](CCSC)NC(=O)[C@H](CCCCN)NC(=O)[C@H](C(C)C)NC(=O)CNC(=O)[C@@H]2CCCN2C(=O)[C@H](CCSC)NC(=O)[C@H](CCCCN)NC(=O)[C@H](CCCNC(=N)N)NC1=O [SEQ ID NO: 8, Ac-Ile1-Pro2-Arg3-Cys4-Arg5-Lys6-Met7-Pro8-Gly9-Val10-Lys11-Met12-Cys13] (Ac-IPRCRKMPGVKMC-OH; disulfide 4-13)
Ki (trypsin): 24.8 nM

CC[C@H](C)[C@H](NC(C)=O)C(=O)N1CCC[C@H]1C(=O)N[C@@H](CCCNC(=N)N)C(=O)N[C@H]1CSSC[C@@H](C(N)=O)NC(=O)[C@H](CCSC)NC(=O)[C@H](CCCCN)NC(=O)[C@H](C(C)C)NC(=O)CNC(=O)[C@@H]2CCCN2C(=O)[C@H](CCSC)NC(=O)[C@H](CCCCN)NC(=O)[C@H](CCCNC(=N)N)NC1=O [SEQ ID NO: 9, Ac-Ile1-Pro2-Arg3-Cys4-Arg5-Lys6-Met7-Pro8-Gly9-Val10-Lys11-Met12-Cys13-NH2] (Ac-IPRCRKMPGVKMC-NH2; disulfide 4-13)
Ki (trypsin): 21.8 nM
